Drawing on patent publication US20220324865A1 (Bayer Aktiengesellschaft, priority 2018, published 2022), this text covers IC50 for 17 molecules.

Structures are written as SMILES.

For the assay, the target named is T1, human EP3 receptor (Homo sapiens, UniProt P43115).
T1 construct: expressed in transfected cells; host or cells: CHO K1 (Chinese Hamster Ovary), stably co-transfected with Galpha16 and mitochondrial clytin
T1 sequence (P43115 1-390): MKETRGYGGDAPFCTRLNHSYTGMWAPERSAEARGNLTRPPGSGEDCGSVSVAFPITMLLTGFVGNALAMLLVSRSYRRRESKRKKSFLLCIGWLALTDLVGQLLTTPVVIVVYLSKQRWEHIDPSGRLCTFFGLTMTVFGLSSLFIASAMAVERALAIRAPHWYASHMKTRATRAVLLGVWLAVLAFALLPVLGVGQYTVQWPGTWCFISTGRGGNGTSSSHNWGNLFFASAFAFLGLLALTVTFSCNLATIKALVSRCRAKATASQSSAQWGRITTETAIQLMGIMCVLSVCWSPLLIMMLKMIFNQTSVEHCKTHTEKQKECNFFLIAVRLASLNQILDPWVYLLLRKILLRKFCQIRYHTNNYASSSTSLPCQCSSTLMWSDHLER
Kind of assay: Cellular in vitro assay for determining EP3 receptor activity (human EP3 cell line, sulprostone-stimulated calcium luminescence). Type of assay: cell-based. Particulars: CHO cells expressing human EP3 and mitochondrial Clytin; antagonist mode, sulprostone at EC50; read-out: EP3 CHO mtCLY ANTAG IC50. An outline of the steps:
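CHO K1 cells stably expressing human EP3 with Gα16 and mitochondrial Clytin, loaded overnight with coelenterazine. Compounds added 10 min before sulprostone at its EC50; antagonism read immediately as reduced calcium-driven luminescence, quadruplicate points.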
As to `O=C(N[C@@H](c1ccc(F)cc1)C(F)(F)CO)c1nn2cc(-c3ccc(C(F)(F)F)c(F)c3F)[nH]c(=O)c2c1C1CC1` [6-601], the IC50 was determined as 4.25 nM.

On to `Cc1cc(-c2cn3nc(C(=O)N[C@H](C)C(C)C)c(C(F)(F)F)c3c(=O)[nH]2)ccc1Cl` [6-217], for which the IC50 was determined as 1.95 nM. For `CC(C)(O)[C@@H](NC(=O)c1cc2c(=O)[nH]c(-c3ccc4c(c3)CCC4)cn2n1)c1ccc(F)cc1` [Example 1-134, 6-(2,3-Dihydro-1H-inden-5-yl)-N-[(1S)-1-(4-fluorophenyl)-2-hydroxy-2-methylpropyl]-4-oxo-4,5-dihydropyrazolo[1,5-a]pyrazine-2-carboxamide], the IC50 came to 5.75 nM.

With `Cn1cnc2cc(-c3cn4nc(C(=O)N[C@@H](c5ccc(F)cc5)C(C)(C)O)c(C(F)(F)F)c4c(=O)[nH]3)ccc21` [6-659], the IC50 is 8.55 nM.

For `Cc1ccc(-c2cn3nc(C(=O)NC(C)c4ccc(O)cc4)cc3c(=O)[nH]2)cc1C` (centres unmarked) [Example 1-137, 6-(3,4-Dimethylphenyl)-N-[1-(4-hydroxphenyl)ethyl]-4-oxo-5H-pyrazolo[1,5-a]pyrazine-2-carboxamide], the 50% inhibitory concentration (IC50) was found to be 2.9 nM. Turning to `O=C(NC1(c2ccc(F)cc2)CC1)c1cc2c(=O)[nH]c(-c3ccc4ccccc4c3)cn2n1` [6-18], the IC50 stood at 1.75 nM. With `Cc1cccc2ncc(-c3cn4nc(C(=O)NCc5cc[nH]n5)c(C(C)C)c4c(=O)[nH]3)cc12` [Example 4-14, 6-(5-Methylquinolin-3-yl)-4-oxo-3-(propan-2-yl)-N-[(1H-pyrazol-3-yl)methyl]-4,5-dihydropyrazolo[1,5-a]pyrazine-2-carboxamide] the figure was 2.5 nM; with `Cc1ccc(-c2cn3nc(C(=O)NCC(O)C(F)(F)F)c(C)c3c(=O)[nH]2)cc1F` (racemic) [6-409], 7.12 nM; with `CN(C)CC(NC(=O)c1nn2cc(-c3ccc4ccccc4c3)[nH]c(=O)c2c1C(F)(F)F)c1ccc(F)cc1` (racemic) [6-506], 5.45 nM.

Regarding `CCCN1CC(NC(=O)c2nn3cc(-c4ccc5ccccc5c4)[nH]c(=O)c3c2C(F)(F)F)(c2ccc(F)cc2)C1` [Example 1-127, N-[3-(4-Fluorophenyl)-1-propylazetidin-3-yl]-6-(naphthalen-2-yl)-4-oxo-3-(trifluoromethyl)-4,5-dihydropyrazolo[1,5-a]pyrazine-2-carboxamide], the IC50 is 2.15 nM.

Take `C[C@@H](NC(=O)c1cc2c(=O)[nH]c(-c3ccc4c(c3)CCCC4)cn2n1)c1ccc(F)cc1` [Example 1-101, N-[(1R)-1-(4-Fluorophenyl)ethyl]-4-oxo-6-(5,6,7,8-tetrahydronaphthalen-2-yl)-4,5-dihydropyrazolo[1,5-a]pyrazine-2-carboxamide]: the IC50 was determined as 1.7 nM. Then `COc1ccc(CNC(=O)c2cc3c(=O)[nH]c(-c4ccc5c(c4)N(C)CCO5)cn3n2)cc1OC` [Example 1-16, N-(3,4-Dimethoxybenzyl)-6-(4-methyl-3,4-dihydro-2H-1,4-benzoxazin-6-yl)-4-oxo-4,5-dihydropyrazolo[1,5-a]pyrazine-2-carboxamide], with 2 nM; and `COC[C@@H](C)NC(=O)c1nn2cc(-c3ccc4ccccc4c3)[nH]c(=O)c2c1C(F)(F)F` [6-516], with 4.4 nM; and `N#Cc1c(C(=O)N[C@@H](CCO)c2ccc(F)cc2)nn2cc(-c3ccc4ccccc4c3)[nH]c(=O)c12` [Example 1-72, 3-Cyano-N-[(1S)-1-(4-fluorophenyl)-3-hydroxpropyl]-6-(naphthalen-2-yl)-4-oxo-4,5-dihydropyrazolo[1,5-a]pyrazine-2-carboxamide], with 6.55 nM. With `Cc1ccc(-c2cn3nc(C(=O)NCC(O)C(F)(F)F)c(C(F)(F)F)c3c(=O)[nH]2)cc1C` (single isomer, unassigned) [6-117] the figure was 3.85 nM; with `CC(C)c1c(C(=O)NC2(c3ccc(F)cc3)CN(C)C2)nn2cc(-c3cccc(Cl)c3)[nH]c(=O)c12` [6-684], 3.35 nM; with `COc1ccc(C2(NC(=O)c3cc4c(=O)[nH]c(-c5ccc6c(c5)OCCO6)cn4n3)CN(C(=O)OC(C)(C)C)C2)cc1` [6-58], 2.3 nM.

For orientation: IC50 means the midpoint of a concentration-inhibition curve.
